Laboratory results from ChEMBL document CHEMBL1135211, “Non-covalent thrombin inhibitors featuring P3-heterocycles with P1-bicyclic arginine surrogates” (Bioorg Med Chem Lett, 2002).

Key:
[1] = Ionisation constant (pKa); assay type: physicochemical
[2] = Cmax in dog plasma after oral dose (1 mg/kg); assay type: ADME, organism-based, Canis lupus familiaris; design: dose 1 mg/kg, route oral
in vivo [3] = settings: dog, po, 1 mg/kg
Prothrombin = Prothrombin (Homo sapiens, UniProt P00734); assay: In vitro inhibitory activity against human Thrombin (FIIa) cleavage of the chromogenic substrate
in vivo [4] = settings: dog, po, 1 mg/kg; remark: listed apart in the source

Row | SMILES | pKa [1] | Cmax [2] | AUC (in vivo [3]; plasma) | Ki (Prothrombin) | half-life (in vivo [4]) | AUC (in vivo [3]; in vivo)
1 | Cc1cnc(NCC(F)(F)c2ccccc2)c(=O)n1CC(=O)NCc1ccc2c(N)noc2c1 | 8.6 | 1200 ng/mL | 6030 ng·h/mL | 2.5 nM | 3.28 h | 
2 | Cc1ccc(NS(=O)(=O)Cc2ccccc2)c(=O)n1CC(=O)NCc1ccc2[nH]ncc2c1 |  | 410 ng/mL | 515 ng·h/mL | 8.7 nM | 0.6 h | 
3 | Cc1n[nH]c2ccc(CNC(=O)Cn3c(C)cnc(NCCc4ccccc4)c3=O)cc12 |  |  |  | 444 nM |  | 
4 | Cc1cnc(NCC2(c3ccccn3)CC2)c(=O)n1CC(=O)NCc1ccc2c(N)noc2c1 | 8.6 | 770 ng/mL | 2230 ng·h/mL | 25.9 nM | 1.67 h | 
5 | Cc1cnc(NCC(c2ccccc2)c2ccccc2)c(=O)n1CC(=O)NCc1ccc2c(N)noc2c1 | 8.6 | 300 ng/mL | 2200 ng·h/mL | 31 nM | 4.17 h | 
6 | Cc1nc2cc(CNC(=O)Cn3c(C)cnc(NCCc4ccccc4)c3=O)ccc2[nH]1 | 6.4 |  |  | > 3970 nM |  | 
7 | Cc1cnc(NC[C@@H](C)c2ccccc2)c(=O)n1CC(=O)NCc1ccc2[nH]cnc2c1 | 5.8 | 480 ng/mL | 1010 ng·h/mL | 9.3 nM | 1.15 h | 
8 | CCc1cnc(NCCc2ccccc2)c(=O)n1CC(=O)NCc1ccc2[nH]ccc2c1 |  | 310 ng/mL | 523 ng·h/mL | 23.7 nM | 1.4 h | 
9 | COc1cccc(S(=O)(=O)Nc2cccn(CC(=O)NCc3ccc4c(N)[nH]nc4c3)c2=O)c1 | 3.8 | 350 ng/mL | 1040 ng·h/mL |  | 1.85 h | 
10 | Cc1cnc(NCCc2ccccc2)c(=O)n1CC(=O)NCc1ccc2nc(N)sc2c1 | 7.5 |  |  | > 3970 nM |  | 
11 | COc1ccc(CCNc2ncc(C)n(CC(=O)NCc3ccc4[nH]cnc4c3)c2=O)cc1 | 5.8 | 190 ng/mL | 458 ng·h/mL | 5 nM | 1.52 h | 
12 | Cc1cnc(NCCc2ccccc2)c(=O)n1CC(=O)NCc1ccc2[nH]cnc2c1 | 5.8 | 390 ng/mL | 1630 ng·h/mL |  | 1.77 h | 
13 | Cc1cnc(NCCc2ccccn2)c(=O)n1CC(=O)NCc1ccc2[nH]ncc2c1 |  |  |  | 3.1 nM |  | 
14 | Cc1cnc(NCCc2ccccc2)c(=O)n1CC(=O)NCc1ccc2[nH]ncc2c1 |  |  |  | 18.4 nM |  | 
15 | Cc1ccc(NS(=O)(=O)c2ccc3c(c2)CCO3)c(=O)n1CC(=O)NCc1ccc2c[nH]nc2c1 |  |  |  | 1320 nM |  | 
16 | Cc1cnc(NCCc2ccccc2)c(=O)n1CC(=O)NCc1ccc2[nH]nc(O)c2c1 | 6.3 | 30 ng/mL | 18.3 ng·h/mL | 33 nM |  | 
17 | Cc1cnc(NCCc2ccc3c(c2)CCO3)c(=O)n1CC(=O)NCc1ccc2[nH]ncc2c1 |  |  |  | 2.9 nM |  | 
18 | Cc1ccc(NS(=O)(=O)Cc2ccc(Br)cc2)c(=O)n1CC(=O)NCc1ccc2c(N)noc2c1 | 8.6 | 1520 ng/mL | 5470 ng·h/mL | 22.2 nM | 1.82 h | 
19 | Cc1ccc(NS(=O)(=O)c2ccc3c(c2)CCO3)c(=O)n1CC(=O)NCc1ccc2[nH]nc(N)c2c1 | 3.6 | 230 ng/mL | 298 ng·h/mL | 28.7 nM | 1.2 h | 
20 | COc1ccc(C2(CNc3ncc(C)n(CC(=O)NCc4ccc5[nH]nc(N)c5c4)c3=O)CC2)cc1 | 3.6 | 1370 ng/mL | 3270 ng·h/mL | 9 nM | 1.48 h | 
21 | Cc1ccc(NS(=O)(=O)Cc2ccccc2)c(=O)n1CC(=O)NCc1ccc2c(N)[nH]nc2c1 | 3.8 | 580 ng/mL | 1310 ng·h/mL | 224 nM | 1.4 h | 
22 | Cc1ccc(NS(=O)(=O)Cc2ccccc2)c(=O)n1CC(=O)NCc1ccc2onc(N)c2c1 | 8.2 | 240 ng/mL | 630 ng·h/mL |  | 2.2 h | 
23 | Cc1cnc(NC[C@H](C)c2ccccc2)c(=O)n1CC(=O)NCc1ccc2[nH]ncc2c1 |  |  |  | 5.7 nM |  | 

Row | SMILES | pKa [1] | Cmax [2] | AUC (in vivo [3]; plasma) | Ki (Prothrombin) | half-life (in vivo [4]) | AUC (in vivo [3]; in vivo)
24 | Cc1ccc(NS(=O)(=O)Cc2ccccc2)c(=O)n1CC(=O)NCc1ccc2c(N)noc2n1 | 4.7 | 280 ng/mL | 237 ng·h/mL | 203 nM | 0.6 h | 
25 | Cc1cnc(NCCc2ccccc2)c(=O)n1CC(=O)NCc1ccc2[nH]nc(N)c2c1 | 3.6 | 1030 ng/mL | 4850 ng·h/mL |  | 2.77 h | 
26 | Cc1cnc(NCCc2ccccc2)c(=O)n1CC(=O)NCc1ccc2[nH]nnc2c1 |  |  |  | 224 nM |  | 
27 | COc1cccc(CCNc2ncc(C)n(CC(=O)NCc3ccc4[nH]ncc4c3)c2=O)c1 |  |  |  | 10.4 nM |  | 
28 | Cc1ccc(NS(=O)(=O)Cc2ccccc2)c(=O)n1CC(=O)NCc1ccc2c(N)[nH]nc2n1 | 6.7 |  |  | 1590 nM |  | 
29 | Cc1ccc(NS(=O)(=O)Cc2ccc(Cl)cc2)c(=O)n1CC(=O)NCc1ccc2[nH]cnc2c1 | 5.8 | 170 ng/mL | 202 ng·h/mL | 6.5 nM | 1.15 h | 
30 | Cc1cnc(NCC2(c3ccc(F)cc3)CC2)c(=O)n1CC(=O)NCc1ccc2c(N)noc2c1 | 8.6 | 850 ng/mL | 3150 ng·h/mL | 15.5 nM | 2.17 h | 
31 | Cc1cc2cn[nH]c2cc1CNC(=O)Cn1c(C)ccc(NS(=O)(=O)Cc2ccccc2)c1=O | 4 |  |  | 271 nM |  | 
32 | Cc1cnc(NCC2(c3ccccc3)CCC2)c(=O)n1CC(=O)NCc1ccc2[nH]nc(O)c2c1 | 6.3 |  |  | 10 nM |  | 
33 | Cc1cnc(NCCc2ccc3c(c2)CCC3)c(=O)n1CC(=O)NCc1ccc2[nH]ccc2c1 |  |  |  | 29.8 nM |  | 
34 | Cc1cnc(NCC(F)(F)c2ccccc2)c(=O)n1CC(=O)NCc1ccc2[nH]nc(N)c2c1 | 3.6 | 960 ng/mL | 5930 ng·h/mL | 4.1 nM | 3.63 h | 
35 | Cc1cnc(NCC2(c3ccc(F)cc3)CC2)c(=O)n1CC(=O)NCc1ccc2[nH]nc(N)c2c1 | 3.6 | 880 ng/mL | 2950 ng·h/mL | 15.4 nM | 2.07 h | 
36 | Cc1cnc(NCCc2ccccc2)c(=O)n1CC(=O)NCc1ccc2c(N)noc2c1 | 8.6 | 1030 ng/mL | 3950 ng·h/mL | 82.2 nM | 2.52 h | 
37 | COc1cccc(S(=O)(=O)Nc2cccn(CC(=O)NCc3ccc4[nH]nc(N)c4c3)c2=O)c1 | 3.6 | 930 ng/mL | 3950 ng·h/mL | 325 nM | 4.57 h | 
38 | Cc1cnc(NCCc2ccc(F)cc2)c(=O)n1CC(=O)NCc1ccc2c(N)noc2c1 | 8.6 | 640 ng/mL | 4680 ng·h/mL | 17.6 nM | 4.35 h | 
39 | Cc1cnc(NCCc2ccc3c(c2)CCC3)c(=O)n1CC(=O)NCc1ccc2c(ccn2N)c1 | 7.4 |  |  | 12400 nM |  | 
40 | Cc1ccc(NS(=O)(=O)Cc2ccccc2)c(=O)n1CC(=O)NCc1ccc2[nH]nc(N)c2c1 | 3.6 |  |  | 72.9 nM |  | 
41 | Cc1ccc(NS(=O)(=O)c2ccc3c(c2)CCO3)c(=O)n1CC(=O)NCc1ccc2[nH]ncc2c1 |  |  |  | 3.9 nM |  | 
42 | Cc1ccc(NS(=O)(=O)Cc2ccccc2)c(=O)n1CC(=O)NCc1ccc2c(N)noc2c1 | 8.6 | 1600 ng/mL | 3680 ng·h/mL | 74.3 nM | 1.55 h | 
43 | Cc1cnc(NCC2(c3ccccc3)CCC2)c(=O)n1CC(=O)NCc1ccc2c(N)noc2c1 | 8.6 | 620 ng/mL | 2150 ng·h/mL | 10.2 nM | 1.95 h | 
44 | Cc1cnc(NCCc2ccccc2)c(=O)n1CC(=O)NCc1ccc2cn[nH]c2c1 |  | 960 ng/mL | 2200 ng·h/mL |  | 0.417 h | 
45 | Cc1nc(N)ccc1CNC(=O)Cn1c(C)ccc(NS(=O)(=O)Cc2ccccc2)c1=O [L-374087] |  | 790 ng/mL |  | 0.7 nM | 1.78 h | 2670 ng·h/mL
46 | Cc1nc(N)ccc1CNC(=O)Cn1c(C)cnc(NCCc2ccccc2)c1=O [L-375378] |  | 900 ng/mL |  | 1 nM | 3.32 h | 4580 ng·h/mL
